In ChEMBL document CHEMBL5338826, “Design and Synthesis of Inhibitors of the E3 Ligase SMAD Specific E3 Ubiquitin Protein Ligase 1 as a Treatment for Lung Remodeling in Pulmonary Arterial Hypertension” (J Med Chem, 2023):
≈ marks a conversion by molar mass, not a printed value. Calls of active or inactive are those of the source. The calls are words filed in the database; no cut-off is given here.

Tests used:
[1] = target: E3 ubiquitin-protein ligase SMURF2 (Homo sapiens, UniProt Q9HAU4); experiment: Inhibition of SMURF2 (unknown origin) assessed as self-ubiquitination by TR-FRET/biochemical assay
[2] = target: T1, E3 ubiquitin-protein ligase SMURF1 (Homo sapiens, UniProt Q9HCE7); experiment: Stabilization of SMURF1 (unknown origin) assessed as decrease in auto-ubiquitination by measuring increase in protein level by cell-based assay
[3] = target: T1, E3 ubiquitin-protein ligase SMURF1; experiment: Inhibition of SMURF1 (unknown origin) assessed as self-ubiquitination by TR-FRET/biochemical assay
[4] = Cmax in rat at 3 mg/kg, po; assay type: ADME, organism-based; design: dose 3 mg/kg, route po; conditions: in vivo
[5] = Plasma protein binding in rat; assay type: ADME, cell-free; conditions: read-out: PPB
[6] = AUClast in rat at 3 mg/kg, po; assay type: ADME, organism-based; conditions: in vivo
[7] = Metabolic stability in rat liver microsomes assessed as half life; assay type: ADME, Microsome
[8] = system: Rattus norvegicus; experiment: Anti-remodeling efficacy in hypoxia/Sugen 5416-induced pulmonary arterial hypertension rat model assessed as blocked of progression of phenotype of muscularization in the pulmonary vasculature at 3 mg/kg measured after 14 days relative to control; assay type: functional, organism-based; conditions: time 14.0 day
[9] = Oral bioavailability in rat at 3 mg/kg; assay type: ADME, organism-based; conditions: in vivo
[10] = system: Rattus norvegicus; experiment: Anti-remodeling efficacy in hypoxia/Sugen 5416-induced pulmonary arterial hypertension rat model assessed as blocked of progression of phenotype of muscularization in the pulmonary vasculature at 10 mg/kg measured after 14 days relative to control; assay type: functional, organism-based; conditions: time 14.0 day
[11] = Half life in rat at 3 mg/kg, po and 1 mg/kg, iv; assay type: ADME, organism-based; conditions: in vivo
[12] = system: Rattus norvegicus; experiment: Anti-remodeling efficacy in hypoxia/Sugen 5416-induced pulmonary arterial hypertension rat model assessed as reversal of vessel muscularization in the pulmonary vasculature at 3 mg/kg measured after 14 days relative to control; assay type: functional, organism-based; conditions: time 14.0 day
[13] = system: Rattus norvegicus; experiment: Anti-remodeling efficacy in hypoxia/Sugen 5416-induced pulmonary arterial hypertension rat model assessed as reversal of vessel muscularization in the pulmonary vasculature at 10 mg/kg measured after 14 days relative to control; assay type: functional, organism-based; conditions: time 14.0 day
[14] = Volume of distribution at steady state in rat at 3 mg/kg, po and 1 mg/kg, iv; assay type: ADME, organism-based; conditions: in vivo
[15] = Equilibrium solubility of the compound at pH 6.8; assay type: physicochemical; conditions: buffer
[16] = organism: Rattus norvegicus; experiment: Anti-remodeling efficacy in hypoxia/Sugen 5416-induced pulmonary arterial hypertension rat model assessed as muscularized vessels in the pulmonary vasculature measured after 14 days relative to control; assay type: functional; conditions: time 14 day
[17] = organism: Rattus norvegicus; experiment: Anti-remodeling efficacy in hypoxia/Sugen 5416-induced pulmonary arterial hypertension rat model assessed as blocked of progression of phenotype of muscularization in the pulmonary vasculature measured after 14 days relative to control; assay type: functional, organism-based; conditions: time 14.0 day
[18] = organism: Rattus norvegicus; experiment: Anti-remodeling efficacy in hypoxia/Sugen 5416-induced pulmonary arterial hypertension rat model assessed as reversal of vessel muscularization in the pulmonary vasculature measured after 14 days relative to control; assay type: functional, organism-based; conditions: time 14.0 day
[19] = system: Rattus norvegicus; experiment: Anti-remodeling efficacy in hypoxia/Sugen 5416-induced pulmonary arterial hypertension rat model assessed as muscularized vessels in the pulmonary vasculature at 10 mg/kg measured after 14 days relative to control; assay type: functional; conditions: time 14 day
[20] = system: Rattus norvegicus; experiment: Anti-remodeling efficacy in hypoxia/Sugen 5416-induced pulmonary arterial hypertension rat model assessed as muscularized vessels in the pulmonary vasculature at 10 mg/kg measured till end of the study relative to control; assay type: functional

Chain of E3 ubiquitin-protein ligase SMURF2 (Q9HAU4 whole entry): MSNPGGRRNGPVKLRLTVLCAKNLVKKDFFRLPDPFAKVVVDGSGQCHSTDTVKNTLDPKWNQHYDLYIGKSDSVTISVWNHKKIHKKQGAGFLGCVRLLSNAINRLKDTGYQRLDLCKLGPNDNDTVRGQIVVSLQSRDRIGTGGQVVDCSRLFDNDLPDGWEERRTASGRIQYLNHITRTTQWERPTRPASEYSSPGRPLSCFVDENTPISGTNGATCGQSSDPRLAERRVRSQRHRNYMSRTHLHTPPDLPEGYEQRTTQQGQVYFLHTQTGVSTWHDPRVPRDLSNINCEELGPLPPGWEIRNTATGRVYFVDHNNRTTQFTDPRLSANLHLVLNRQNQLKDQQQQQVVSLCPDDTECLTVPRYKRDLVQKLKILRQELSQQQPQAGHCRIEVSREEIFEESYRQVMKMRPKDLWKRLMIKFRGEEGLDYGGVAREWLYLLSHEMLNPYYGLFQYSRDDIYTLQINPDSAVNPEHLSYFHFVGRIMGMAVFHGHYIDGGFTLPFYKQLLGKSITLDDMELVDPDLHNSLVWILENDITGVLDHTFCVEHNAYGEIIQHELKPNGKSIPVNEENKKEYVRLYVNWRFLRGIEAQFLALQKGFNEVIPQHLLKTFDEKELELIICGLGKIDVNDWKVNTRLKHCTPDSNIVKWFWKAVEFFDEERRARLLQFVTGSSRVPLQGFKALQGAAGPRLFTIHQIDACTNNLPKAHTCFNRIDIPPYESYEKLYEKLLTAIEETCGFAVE
T1 sequence (Q9HCE7 whole entry): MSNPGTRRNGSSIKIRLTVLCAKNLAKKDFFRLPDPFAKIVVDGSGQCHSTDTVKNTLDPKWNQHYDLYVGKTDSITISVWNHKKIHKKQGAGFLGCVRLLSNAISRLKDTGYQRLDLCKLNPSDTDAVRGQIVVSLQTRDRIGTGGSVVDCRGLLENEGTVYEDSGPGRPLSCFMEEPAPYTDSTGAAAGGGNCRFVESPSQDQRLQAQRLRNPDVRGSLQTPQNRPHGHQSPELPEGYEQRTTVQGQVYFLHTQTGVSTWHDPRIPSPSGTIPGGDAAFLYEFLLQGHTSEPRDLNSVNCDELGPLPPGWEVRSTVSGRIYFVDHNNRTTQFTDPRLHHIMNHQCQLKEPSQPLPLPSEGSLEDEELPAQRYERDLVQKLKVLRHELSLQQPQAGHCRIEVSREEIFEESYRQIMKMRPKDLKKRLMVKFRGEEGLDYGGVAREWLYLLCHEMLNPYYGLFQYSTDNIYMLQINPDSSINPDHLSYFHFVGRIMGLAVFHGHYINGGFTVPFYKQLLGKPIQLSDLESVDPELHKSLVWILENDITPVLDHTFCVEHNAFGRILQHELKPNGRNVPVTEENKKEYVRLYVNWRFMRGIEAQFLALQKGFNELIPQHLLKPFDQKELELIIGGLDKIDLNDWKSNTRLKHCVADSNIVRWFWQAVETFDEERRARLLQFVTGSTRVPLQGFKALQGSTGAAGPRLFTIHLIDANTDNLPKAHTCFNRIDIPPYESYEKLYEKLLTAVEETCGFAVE

Compound	EC50 [2] [nM]	IC50 [3] [nM]	half-life [7] [min]	solubility thermodynamic [15] [µM]	further results
COc1ccc2c(c1)CCc1c(C(=O)Nc3c(C)n(C)n(-c4ccccc4)c3=O)noc1-2	4660	3000			IC50 [1]: > 10000 nM
COc1ccc2c(c1)CCCc1c(C(=O)Nc3c(C)n(C)n(-c4ccccc4)c3=O)noc1-2	1100	400			
Cc1c(C(=O)Nc2c(C)n(C)n(-c3ccccc3F)c2=O)noc1-c1cc(Cl)ccc1Cl	2500	280			
COc1cc2ccc3c(C(=O)Nc4c(C)n(C)n(-c5ccccc5)c4=O)noc3c2cc1OC		> 10000			
COc1ccc(-c2onc(C(=O)Nc3c(C)n(C)n(-c4ccccc4F)c3=O)c2C)cc1	1600	1000	15.8	22 (≈ 9.6 µg/mL)	
NC(=O)c1ccc(-c2nc(-c3ccccn3)c(-c3ccc4c(c3)OCO4)[nH]2)cc1 [SB-431542]					Activity [16]: 15%; Activity [17]: Active; Activity [18]: inactive
Cc1c(C(=O)Nc2c(C)n(C)n(-c3ccccc3F)c2=O)noc1-c1ccc(Cl)cc1F	1100	700	30.7	530 (≈ 243 µg/mL)	
COc1ccc(-c2cc(C(=O)Nc3c(C)n(C)n(-c4ccccc4)c3=O)no2)cc1	> 22000	> 10000			

More lines, in order of falling EC50 [2], values ahead:

EC50 [2] [nM]	IC50 [3] [nM]	half-life [7] [min]	solubility thermodynamic [15] [µM]	Compound	further results
600	200			COc1ccc2c(c1)CCCc1c(C(=O)Nc3c(C)n(C)n(-c4ccccc4F)c3=O)noc1-2	
580	180	70.5	140 (≈ 61.7 µg/mL)	Cc1c(C(=O)Nc2c(C)n(C)n(-c3ccccc3F)c2=O)noc1-c1ccc(Cl)cc1	
410	29	16.7	13 (≈ 6.18 µg/mL)	Cc1c(C(=O)Nc2c(C)n(C)n(-c3ccccc3F)c2=O)noc1-c1ccc(Cl)cc1Cl	
316			190 (≈ 89.1 µg/mL)	Cc1c(C(=O)Nc2c(C)n(C)n(C3CCCCC3)c2=O)nnn1-c1ccc(C2CC2)cc1Cl	Cmax [4]: 2010 nM; fraction unbound [5]: < 0.01; AUClast [6]: 7.38 µM·h; IC50 [1]: > 20000 nM; Activity [19]: 10%; Activity [20]: 18%; bioavailability [9]: 82%; half-life [11]: 474 min; Vdss [14]: 2.3 L/kg
250	180	45.2	280 (≈ 126 µg/mL)	COc1ccc(-c2onc(C(=O)Nc3c(C)n(C)n(-c4ccccc4F)c3=O)c2C)c(C)c1	
230	11	18.9		Cc1c(C(=O)Nc2c(C)n(C)n(-c3ccccc3F)c2=O)noc1-c1ccc(C2CC2)cc1Cl	Cmax [4]: 1080 nM; fraction unbound [5]: < 0.01; AUClast [6]: 11.6 µM·h; Activity [8]: Active; bioavailability [9]: 97%; Activity [10]: Active; half-life [11]: 114 min; Activity [12]: Active; Activity [13]: Active; Vdss [14]: 1.5 L/kg
40			24 (≈ 6.66 µg/mL)	Cc1c(C(=O)O)noc1-c1ccc(C2CC2)cc1Cl	Cmax [4]: 541 nM; fraction unbound [5]: < 0.01; AUClast [6]: 2.78 µM·h; IC50 [1]: 2900 nM; bioavailability [9]: 67%; half-life [11]: 96 min; Vdss [14]: 1.7 L/kg
